From PubChem BioAssay AID732 (Emory University Molecular Libraries Screening Center, 2007)
The source made the active and inactive calls. No rule for the calls is given here.

The compounds below were run on in vivo angiogenesis, blood vessel count (assay: reduction of blood vessel formation in vivo – HTS, in vivo study (AID 732;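 also: zebrafish embryos dosed at one day post fertilization; 0% = reference inhibitor and 100% = plate mean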)). Settings: active compounds read low;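 tested at 30 µM in the well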.

Row | Structure (SMILES) | vessel count % control
1 | CC[C@@]1(O)C(=O)OCc2c1cc1n(c2=O)Cc2cc3ccccc3nc2-1 | 0% (inactive)
2 | NCCCCN | 106% (inactive)
3 | CC(N)[C@H](O)c1ccc(O)c(O)c1 (stereo not given in full) | 106% (inactive)
4 | O=C(O)C1CCCN(CCC=C(c2ccccc2)c2ccccc2)C1 (stereo not given) | 88.5% (inactive)
5 | CCCC(CCC)C(=O)O | 89.7% (inactive)
6 | N[C@H](C(=O)O)[C@H](O)C(=O)O | 90.4% (inactive)
7 | CNCC(O)c1ccc(O)c(O)c1 (stereo not given) | 123% (inactive)
8 | O=C1C2C=CC=CC2=NC(=S)N1CCN1CCC(=C(c2ccc(F)cc2)c2ccc(F)cc2)CC1 (stereo not given) | 78.2% (inactive)
9 | COc1ccc(/C=C/C(=O)Nc2ccccc2C(=O)O)cc1OC | 100% (inactive)
10 | NCCS(=O)(=O)O | 96.7% (inactive)
11 | CC(C)NCC(O)COc1ccc(CCOCC2CC2)cc1 (stereo not given) | 94.3% (inactive)
12 | CN1CCc2cc(Cl)c(O)cc2[C@@H](c2ccccc2)C1 | 97.5% (inactive)
13 | Nc1ccncc1 | 118% (inactive)
14 | CC(=O)NBr | 130% (inactive)
15 | C#CCOC(=O)C1=CCCN(C)C1 | 106% (inactive)
16 | CCN(CC)CCNC(=O)c1ccc(N)cc1 | 139% (inactive)
17 | CCCN(CCC)C(=O)C(CCC(=O)O)NC(=O)c1ccccc1 (stereo not given) | 103% (inactive)
18 | N=C(N)c1ccccc1 | 110% (inactive)
19 | O=C1c2c(O)ccc(O)c2C(=O)c2c(NCCNCCO)ccc(NCCNCCO)c21 | 136% (inactive)
20 | NC1CC1c1ccccc1 (stereo not given) | 94.1% (inactive)
21 | OCC1NCC(O)C(O)C1O (stereo not given) | 97.9% (inactive)
22 | CNCCCC1c2ccccc2C=Cc2ccccc21 | 96% (inactive)
23 | Nc1ncnc2c1c(-c1ccc(Oc3ccccc3)cc1)cn2C1CCCC1 | 77.9% (inactive)
24 | COc1ccc2c(c1)c(CC(=O)O)c(C)n2C(=O)c1ccc(Cl)cc1 | 112% (inactive)
25 | CC(=O)c1c(O)c(C)c(O)c(Cc2c(O)c3c(c(C(=O)/C=C/c4ccccc4)c2O)OC(C)(C)C=C3)c1O | 0% (inactive)
26 | C=Cc1c(C)c2cc3[nH]c(cc4nc(cc5nc(cc1[nH]2)C(C)=C5CCC(=O)O)C(CCC(=O)O)=C4C)c(C)c3C=C | 112% (inactive)
27 | CCCCCCCCCCCCCCCCCCOC[C@H](COP(=O)([O-])OCC[N+](C)(C)C)OC | 97.5% (inactive)

Row | Structure (SMILES) | vessel count % control
28 | CN1C2CC(OC(=O)[C@H](CO)c3ccccc3)CC1C1OC12 (stereo not given in full) | 79.7% (inactive)
29 | CC(C)C[C@H](N)CSSC[C@@H](N)CC(C)C | 39.2% (inactive)
30 | CN(N=O)c1cc(O)ccc1O | 88% (inactive)
31 | COc1ccc(OC)c(C(O)C(C)N)c1 (stereo not given) | 94.8% (inactive)
32 | CC(C)C(=O)Nc1ccc([N+](=O)[O-])c(C(F)(F)F)c1 | 113% (inactive)
33 | CC(C(O)c1ccc(O)cc1)N1CCC(Cc2ccccc2)CC1 (stereo not given) | 0% (inactive)
34 | CC(C)NP(=O)(NC(C)C)OP(=O)(NC(C)C)NC(C)C | 117% (inactive)
35 | Cc1cc2c(cc1Cl)N(C(=O)Nc1ccnc3ccccc13)CC2 | 108% (inactive)
36 | CCOC(=O)N1CCC(=C2c3ccc(Cl)cc3CCc3cccnc32)CC1 | 103% (inactive)
37 | CCCN(CCC)CCc1c[nH]c2ccc(C(N)=O)cc12 | 80.1% (inactive)
38 | CCC(C)N(C)C(=O)c1cc2ccccc2c(-c2ccccc2Cl)n1 (stereo not given) | 102% (inactive)
39 | Nc1ncnc2c1ncn2[C@@H]1O[C@H](C(=O)NC2CC2)[C@H](O)C1O (stereo not given in full) | 102% (inactive)
40 | CC(O)C(O)[C@H]1CNc2nc(N)[nH]c(=O)c2N1 (stereo not given in full) | 125% (inactive)
41 | NCCCS(=O)(=O)O | 144% (inactive)
42 | CC(=O)[C@H]1CCC2C3CC=C4C[C@@H](OS(=O)(=O)O)CC[C@]4(C)C3CC[C@@]21C (stereo not given in full) | 85% (inactive)
43 | O=c1onc2n1-c1cc(Br)ccc1OC2 | 95.9% (inactive)
44 | N#CC(C#N)=Cc1ccc([N+](=O)[O-])c(O)c1 | 88.6% (inactive)
45 | C=CCN1CCc2cccc3c2[C@H]1Cc1ccc(O)c(O)c1-3 | 113% (inactive)
46 | COc1ccc(CCN)cc1O | 108% (inactive)
47 | NCC(O)(CS(=O)(=O)O)c1ccc(Cl)cc1 (stereo not given) | 94.5% (inactive)
48 | O=C(OCCN1CCOCC1)C1(c2ccccc2)CCCCC1 | 91.6% (inactive)
49 | NC(=Nc1ccccc1)NC(=O)c1nc(Cl)c(N)nc1N | 104% (inactive)
50 | CN(C)CC[C@@H](c1ccc(Cl)cc1)c1ccccn1 | 107% (inactive)
51 | CC(CCc1ccccc1)NCC(O)c1ccc(O)c(C(N)=O)c1 (stereo not given) | 89.9% (inactive)
52 | CN=c1nc(-c2ccccc2)n(-c2ccccc2)s1 | 125% (inactive)
53 | Oc1ccc2c3c1O[C@H]1c4[nH]c5ccccc5c4C[C@@]4(O)C(C2)N(CC2CC2)CCC314 (stereo not given in full) | 115% (inactive)
54 | CC1=NN=C(c2ccc(N)cc2)c2cc3c(cc2C1)OCO3 | 96.1% (inactive)

Row | Structure (SMILES) | vessel count % control
55 | Nc1nc(OCc2ccccc2)c2[nH]cnc2n1 | 91% (inactive)
56 | Cc1cc(N)c2ccccc2[n+]1CCCCCCCCCCCCCC[n+]1c(C)cc(N)c2ccccc21 | 79.9% (inactive)
57 | CNC1(C)C2CCC(C2)C1(C)C (stereo not given) | 107% (inactive)
58 | CC(C)NC[C@H](O)COc1ccc(CC(N)=O)cc1 | 86.6% (inactive)
59 | COc1cc2c(CCNC(C)=O)c[nH]c2cc1Cl | 71.1% (inactive)
60 | COc1cc(C(O)CO)ccc1OS(=O)(=O)O (stereo not given) | 93.6% (inactive)
61 | CC(=O)[C@H]1CCC2C3CC[C@H]4C[C@H](O)CC[C@]4(C)C3CC[C@@]21C (stereo not given in full) | 68.7% (inactive)
62 | O=C1NC(=O)C(c2ccccc2)(c2ccccc2)N1 | 92.7% (inactive)
63 | COc1ccccc1N1CCN(CCN(C(=O)c2ccc(F)cc2)c2ccccn2)CC1 | 103% (inactive)
64 | COc1cc(Cc2cnc(N)nc2N)cc(OC)c1OC | 114% (inactive)
65 | Nc1nc2c(ncn2COCCO)c(=O)[nH]1 | 110% (inactive)
66 | CC(C)COC(=O)OCN1C(=O)CN(CCN2CC(=O)N(COC(=O)OCC(C)C)C(=O)C2)CC1=O | 104% (inactive)
67 | CN1CCc2ccccc2Cc2[nH]c3ccccc3c2CC1 | 66.8% (inactive)
68 | COc1ccc2[nH]cc(CCNC(C)=O)c2c1 | 76.5% (inactive)
69 | O=C(OCCN1CCCCC1)c1c[nH]c2ccccc12 | 109% (inactive)
70 | CN(C)CC[C@@H](c1ccc(Br)cc1)c1ccccn1 | 102% (inactive)
71 | COc1cccc(-c2cc(=O)c3ccccc3o2)c1N | 73.8% (inactive)
72 | O=C(c1ccc(F)cc1)C1CCN(CCn2c(=O)[nH]c3ccccc3c2=O)CC1 | 103% (inactive)
73 | CC1=C[C@@H]2c3cccc4[nH]cc(c34)C[C@H]2N(C)C1 | 81.3% (inactive)
74 | Oc1ccc(O)cc1 | 128% (inactive)
75 | Cn1c(=O)c2[nH]c(-c3ccccc3)nc2n(C)c1=O | 117% (inactive)
76 | NC12CC3CC(CC(C3)C1)C2 | 110% (inactive)
77 | C[N+](C)(C)CC#CCOC(=O)Nc1cccc(Cl)c1 | 81.2% (inactive)
78 | Cn1c(=O)c2c(ncn2C)n(C)c1=O | 113% (inactive)
79 | O=C1C(c2c(O)[nH]c3ccc(S(=O)(=O)O)cc23)=Nc2ccccc21 | 101% (inactive)
80 | CCOC(=O)Nc1ccc(NCc2ccc(F)cc2)nc1N | 83.6% (inactive)
81 | CC(C)(C)NCC(O)c1ccccc1Cl (stereo not given) | 130% (inactive)

Row | Structure (SMILES) | vessel count % control
82 | CC(C)NC[C@H](O)COc1cccc2ccccc12 | 94.9% (inactive)
83 | C[N+](C)(C)CCOC(N)=O | 114% (inactive)
84 | COc1ccc(-c2ccc(N)[n+](CCCC(=O)O)n2)cc1 | 105% (inactive)
85 | O=C(/C=C/c1ccc(O)c(O)c1)OCCc1ccccc1 | 0% (inactive)
86 | NC(N)=N/N=C/c1c(Cl)cccc1Cl | 112% (inactive)
87 | O=[N+]([O-])c1cccc2c(Br)[nH]nc12 | 99.9% (inactive)
88 | NCCc1c[nH]c2ccccc12 | 118% (inactive)
89 | CN(C)C(=O)/N=N/C(=O)N(C)C | 110% (inactive)
90 | OCc1cnc[nH]1 | 106% (inactive)
91 | C=CCN1C[C@@H](C)N([C@H](c2ccc(C(=O)N(CC)CC)cc2)c2cccc(OC)c2)C[C@@H]1C | 85.2% (inactive)
92 | O=c1c2ccccc2[se]n1-c1ccccc1 | 94.8% (inactive)
93 | CNC(=O)Oc1ccc2c(c1)[C@]1(C)CCN(C)[C@@H]1N2C | 120% (inactive)
94 | Nc1nc(Nc2ccccc2)nc2c1ncn2[C@@H]1O[C@H](CO)[C@H](O)C1O (stereo not given in full) | 94.3% (inactive)
95 | Cc1ccc(N(CC2=NCCN2)c2cccc(O)c2)cc1 | 77.7% (inactive)
96 | CC(C)[C@@H]1NC(=O)[C@H](CCCCN)NC(=O)[C@@H](Cc2c[nH]c3ccccc23)NC(=O)[C@H](Cc2ccc(O)cc2)NC(=O)[C@H](C)N(C)C(=O)[C@H](Cc2ccccc2)NC1=O | 101% (inactive)
97 | COc1cc(C(O)C(=O)O)ccc1O (stereo not given) | 92.5% (inactive)
98 | C[C@H](CS)C(=O)N1CCC[C@H]1C(=O)O | 100% (inactive)
99 | CN(N=O)c1ccc(O)c(O)c1 | 96.8% (inactive)
100 | CN(C)c1cc2c(Nc3ccc4c(cnn4Cc4ccccc4)c3)ncnc2cn1 | 84.7% (inactive)
101 | CC(C)c1cccc(C(C)C)c1O | 99.6% (inactive)
102 | Cc1nc2c(OCc3ccccc3)cccn2c1CC#N | 120% (inactive)
103 | OC[C@H]1O[C@@H](n2cnc3c(Nc4ccccc4)ncnc32)C(O)[C@H]1O (stereo not given in full) | 110% (inactive)
104 | COc1ccc([C@@H]2Sc3ccccc3N(CCN(C)C)C(=O)[C@@H]2OC(C)=O)cc1 | 107% (inactive)
105 | O=c1ccc2ccc(O)c(O)c2o1 | 121% (inactive)
